What all share (assay type): cell-based
One test concerns Serratia marcescens. Nature of the test: MIC against Gram-negative bacteria: Serratia marcescens. Summed up:
(§1)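 Two-fold serial dilutions of each purified human EGF domain protein, three replicate wells per level, were combined with bacteria at a final 5×10^5 CFU/mL in LB. Cultures were shaken at 175 rpm, 37° C. The MIC was taken as the minimum concentration preventing growth.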

The next test concerns E. coli BL21. The test is described as follows: MIC against Gram-negative bacteria: E. coli BL21. Summed up: as §1
Another test relates to Proteus mirabilis. Nature of the test: MIC against Gram-negative bacteria: Proteus mirabilis. The procedure, abridged:
as §1

A further test relates to Proteus vulgaris. Nature of the test: MIC against Gram-negative bacteria: Proteus vulgaris. The procedure, abridged:
as §1

The subject of the next test is Citrobacter diversus. Nature of the test: MIC against Gram-negative bacteria: Citrobacter diversus. Summed up:
as §1

The subject of another test is Klebsiella pneumonia. Nature of the test: MIC against Gram-negative bacteria: Klebsiella pneumonia. Summed up:
as §1

Another test concerns E. coli DH5α. Nature of the test: Antibacterial activity: MIC and growth curve against E. coli DH5α in 96-well plate. As to conditions: minimal inhibitory concentration against E. coli DH5α; 96-well plate, 5×10^5 CFU/mL, 37° C., judged after 8 h. Summed up: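 Log-phase bacteria (OD600 ~0.5) resuspended in LB at 5×10^5 CFU/mL, exposed to recombinant protein at 50, 25, 12.5 μg/mL final in triplicate, 37 °C shaking at 175 rpm. OD600 read every 30 min; MIC is lowest concentration showing no growth.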

The test system of another test is Aeromonas hydrophila. The test is described as follows: MIC against Gram-negative bacteria: Aeromonas hydrophila. The procedure, abridged: as §1
For the next test, the system named is Moraxella catarrhalis. Nature of the test: MIC against Gram-negative bacteria: Moraxella catarrhalis. Summed up: as §1
A further test has as its system Enterobacter cloacae. The test is described as follows: MIC against Gram-negative bacteria: Enterobacter cloacae. The procedure, abridged:
as §1

The next test relates to Pseudomonas aeruginosa. Nature of the test: MIC against Gram-negative bacteria: Pseudomonas aeruginosa. The procedure, abridged:
as §1

[1] abbreviates: Serratia marcescens, 96-well plate, 5×10^5 CFU/mL, 37° C., 10 h.
[2] abbreviates: E. coli BL21, 96-well plate, 5×10^5 CFU/mL, 37° C., 10 h.
[3] abbreviates: Proteus mirabilis, 96-well plate, 5×10^5 CFU/mL, 37° C., 10 h.
Setting [4] is: Proteus vulgaris, 96-well plate, 5×10^5 CFU/mL, 37° C., 10 h.
Setting [5] is: Citrobacter diversus, 96-well plate, 5×10^5 CFU/mL, 37° C., 10 h.
Setting [6] is: Klebsiella pneumonia, 96-well plate, 5×10^5 CFU/mL, 37° C., 10 h.
Where [7] appears, read: Aeromonas hydrophila, 96-well plate, 5×10^5 CFU/mL, 37° C., 10 h.
[8] abbreviates: Moraxella catarrhalis, 96-well plate, 5×10^5 CFU/mL, 37° C., 10 h.
Setting [9] is: Enterobacter cloacae, 96-well plate, 5×10^5 CFU/mL, 37° C., 10 h.
Where [10] appears, read: Pseudomonas aeruginosa, 96-well plate, 5×10^5 CFU/mL, 37° C., 10 h.
Setting [11] is: 10 h cultivation at 37° C., 5×10^5 CFU/mL, two-fold serial dilution.

With “PRT1320 (PSNPCSHPDRGGCSENAECVPGSLGTHHCTCHKGWSGDGRVCV; listed as Homo sapiens)”, the “MIC against S. marcescens” value against Serratia marcescens (setting [1]) turned out to be 12.5 µg/mL. Also, the “MIC against E. coli BL21” value in the test on E. coli BL21 (setting [2]) came out at 12.5 µg/mL. Besides, the “MIC against P. mirabilis” value against Proteus mirabilis (setting [3]) amounted to 12.5 µg/mL. Moreover, the “MIC against P. vulgaris” value with Proteus vulgaris (setting [4]) amounted to 50 µg/mL. In addition, in the test with Citrobacter diversus (setting [5]), the “MIC against C. diversus” value is 12.5 µg/mL. The “MIC against K. pneumonia” value in the test on Klebsiella pneumonia (setting [6]) worked out at 12.5 µg/mL. The minimum inhibitory concentration (MIC) (usually the smallest concentration in the dilution series that meets the test's criterion for growth inhibition) against E. coli DH5α was 25 µg/mL. In the test with Aeromonas hydrophila (setting [7]), the “MIC against A. hydrophila” value is 12.5 µg/mL. Besides, in the test with Moraxella catarrhalis (setting [8]), the “MIC against M. catarrhalis” value was 12.5 µg/mL. The “MIC against E. cloacae” value against Enterobacter cloacae (setting [9]) worked out at 25 µg/mL. Also, in the test on Pseudomonas aeruginosa (setting [10]), the “MIC against P. aeruginosa” value was determined as 25 µg/mL.

Regarding “PRT25 (PGVCRNGGTCTDAPNGGFRCQCPAGGAFEGPRCE; listed as Homo sapiens)”, the “MIC (μg/mL) S. marcescens” value against Serratia marcescens (setting [1]) is 12.5 µg/mL. Besides, in the test on E. coli BL21 (setting [2]), the “MIC (μg/mL) E. coli BL21” value came to 50 µg/mL. Also, the “MIC (μg/mL) P. mirabilis” value against Proteus mirabilis (setting [3]) was determined as 12.5 µg/mL. Besides, the “MIC (μg/mL) P. vulgaris” value in the test on Proteus vulgaris (setting [4]) is 25 µg/mL. Besides, the “MIC (μg/mL) C. diversus” value with Citrobacter diversus (setting [5]) came out at 100 µg/mL. Further, the “MIC (μg/mL) K. pneumonia” value with Klebsiella pneumonia (setting [6]) amounted to 50 µg/mL. The substance further returned a minimum inhibitory concentration (MIC) with E. coli DH5α of 50 µg/mL. Besides, the “MIC (μg/mL) A. hydrophila” value against Aeromonas hydrophila (setting [7]) stood at 12.5 µg/mL. The “MIC (μg/mL) M. catarrhalis” value in the test with Moraxella catarrhalis (setting [8]) was found to be 25 µg/mL. In addition, the “MIC (μg/mL) E. cloacae” value in the test with Enterobacter cloacae (setting [9]) was 25 µg/mL. Moreover, the “MIC (μg/mL) P. aeruginosa” value in the test on Pseudomonas aeruginosa (setting [10]) came out at 25 µg/mL.

With “PRT1318 (DCTQCPGGFSNPCYGKGNCSDGIQGNGACLCFPDYKGIACH; listed as Homo sapiens)”, in the test with Serratia marcescens (setting [1]), the “MIC against S. marcescens” value is 25 µg/mL. In the test with E. coli BL21 (setting [2]), the “MIC against E. coli BL21” value came out at 12.5 µg/mL. Also, in the test on Proteus mirabilis (setting [3]), the “MIC against P. mirabilis” value is 25 µg/mL. Also, the “MIC against P. vulgaris” value in the test on Proteus vulgaris (setting [4]) turned out to be 50 µg/mL. Further, in the test with Citrobacter diversus (setting [5]), the “MIC against C. diversus” value is 50 µg/mL. For the same substance, in the test on Klebsiella pneumonia (setting [6]), the “MIC against K. pneumonia” value amounted to 50 µg/mL. In the test on E. coli DH5α, this substance had an MIC of 25 µg/mL. Also, in the test with Aeromonas hydrophila (setting [7]), the “MIC against A. hydrophila” value came out at 12.5 µg/mL. For the same substance, the “MIC against M. catarrhalis” value in the test on Moraxella catarrhalis (setting [8]) was found to be 12.5 µg/mL. The “MIC against E. cloacae” value in the test with Enterobacter cloacae (setting [9]) worked out at 25 µg/mL. In the test with Pseudomonas aeruginosa (setting [10]), the “MIC against P. aeruginosa” value came out at 25 µg/mL.

For the substance “PRT917 (DVNECGQKPGLCRHGGTCHNEVGSYRCVCRATHTGPNCE; listed as Homo sapiens)”, the MIC with Serratia marcescens (S. marcescens, 10 h cultivation at 37° C.) is 25 µg/mL; in the test on E. coli BL21 (E. coli BL21, 10 h cultivation at 37° C.), 50 µg/mL; against Proteus mirabilis (P. mirabilis, 10 h cultivation at 37° C.), 25 µg/mL; in the test with Proteus vulgaris (P. vulgaris, 10 h cultivation at 37° C.), 25 µg/mL; with Citrobacter diversus (C. diversus, 10 h cultivation at 37° C.), 12.5 µg/mL; with Klebsiella pneumonia (K. pneumonia, 10 h cultivation at 37° C.) it was 25 µg/mL. The minimum inhibitory concentration (MIC) against E. coli DH5α came to 25 µg/mL; against Aeromonas hydrophila (A. hydrophila, 10 h cultivation at 37° C.), 25 µg/mL; in the test on Moraxella catarrhalis (M. catarrhalis, 10 h cultivation at 37° C.), 50 µg/mL; in the test on Enterobacter cloacae (E. cloacae, 10 h cultivation at 37° C.), 50 µg/mL; against Pseudomonas aeruginosa (P. aeruginosa, 10 h cultivation at 37° C.), 12.5 µg/mL.

“PRT1127 (KDGPCVINGSPCQHGGTCVDDEGRASHASCLCPPGFSGNFCE; listed as Homo sapiens)”: the “MIC S. marcescens” value against Serratia marcescens (setting [11]) came out at 25 µg/mL. Besides, in the test on E. coli BL21 (setting [11]), the “MIC E. coli BL21” value is 50 µg/mL. Also, in the test with Proteus mirabilis (setting [11]), the “MIC P. mirabilis” value worked out at 25 µg/mL. In the test on Proteus vulgaris (setting [11]), the “MIC P. vulgaris” value was 50 µg/mL. Further, the “MIC C. diversus” value in the test on Citrobacter diversus (setting [11]) is 25 µg/mL. The “MIC K. pneumonia” value against Klebsiella pneumonia (setting [11]) was determined as 50 µg/mL. The substance also registered an MIC against E. coli DH5α of 12.5 µg/mL. Also, the “MIC A. hydrophila” value against Aeromonas hydrophila (setting [11]) is 50 µg/mL. Moreover, the “MIC M. catarrhalis” value against Moraxella catarrhalis (setting [11]) came out at 12.5 µg/mL. The “MIC E. cloacae” value in the test with Enterobacter cloacae (setting [11]) turned out to be 12.5 µg/mL. In addition, the “MIC P. aeruginosa” value with Pseudomonas aeruginosa (setting [11]) amounted to 12.5 µg/mL.

The values above are taken from US9833497B2, “Human originated EGF domain proteins and use of the same” (CHENGDU SOURCEBIO LIMITED-LIABILITY COMPANY, priority 2013, dated 2017).
